# Assay results: patent publication US20190099383A1, “Transdermal Delivery of Selexipag Metabolite” (Samos Pharmaceuticals, Inc., priority 2017, published 2019)
# Read-outs that look alike come from different tables or passages of the source.
# Tests used:
# [1] = In vitro unenhanced skin flux, Franz diffusion cells; type: in vitro ADME, human; conditions: 168 hour period, saturated solution in 80/20% ethanol/water, no enhancers
# Method: All in vitro skin permeation studies are conducted using the PermeGear Membrane Transport System. […] Skin flux studies are run for a period of 168 hours. […] The receiver compartment is refilled with fresh receiver medium.
# [2] = Saturation concentration of the drug in the receptor medium; type: physicochemical; conditions: pH 7.4 water with 0.44 mg/ml OLETH 20
# [3] = Formulation B enhancer system, 2, 4, 8, 12 and 24 hour time points (FIG. 1)
# Method: One skin donor and three diffusion cells per formulation were used in these in vitro skin permeation experiments. Split thickness dermatomed (approximately at 375 μm) human cadaver skin was used to determine the permeation rate of the selexipag metabolite ACT 333679 in vitro. All in vitro skin permeation studies were conducted using the PermeGear Membrane Transport System (PermeGear, Inc., Hellertown, Pa.). Each Membrane Transport System consists of vertical, jacketed (37° C.±0.5° C.) Franz diffusion cells with magnetic stirrer and 1.7 cm^2 diffusion area.
# Skin flux studies were run for a period of 48 hours. At predetermined intervals (3, 24 and 48 hours) after starting the experiment, the entire contents of the receiver compartment were collected for determination of the ACT 333679 concentration by HPLC. The receiver compartment was refilled with fresh receiver medium. The receiver medium was pH 7.4 water with 0.44 mg/ml of OLETH 20 (polyethylene glycol ether of oleyl alcohol) with the saturation concentration of the drug in the receptor medium being 0.23 mg/ml or 2 mg total in the receptor phase. […]
# One skin donor and three diffusion cells per formulation were used in these in vitro skin permeation experiments. […] Samples in the receptor phase were obtained at the 2, 4, 8, 12 and 24 hour intervals and the amount of selexipag or ACT333679 was determined by HPLC.
# [4] = target: prostacyclin IP receptor (Homo sapiens, UniProt P43119); conditions: ACT 333679 versus selexipag; cited from earlier work
# [5] = rat; cited from earlier work
# [6] = cited from earlier work
# [7] = test system: carboxylesterases; conditions: cited from earlier work
# [8] = headache, diarrhea, pain in the jaw, nausea and myalgia; cited from earlier work
# prostacyclin IP receptor, sequence (P43119 whole entry): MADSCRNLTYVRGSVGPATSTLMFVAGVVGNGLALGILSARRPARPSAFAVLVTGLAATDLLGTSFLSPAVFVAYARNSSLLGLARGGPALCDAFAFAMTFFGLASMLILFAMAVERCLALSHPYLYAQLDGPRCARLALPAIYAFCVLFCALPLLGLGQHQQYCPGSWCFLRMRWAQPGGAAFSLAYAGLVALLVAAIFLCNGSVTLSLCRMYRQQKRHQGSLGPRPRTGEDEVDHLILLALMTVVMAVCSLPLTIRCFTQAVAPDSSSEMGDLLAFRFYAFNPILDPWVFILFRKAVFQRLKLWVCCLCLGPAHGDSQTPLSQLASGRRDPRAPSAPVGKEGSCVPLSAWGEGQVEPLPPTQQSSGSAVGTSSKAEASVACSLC
"saturation amount, total in the receptor phase [2] [mg]",saturation concentration of the drug in the receptor medium [2] [mg/mL],permeation through skin compared with selexipag [3],Structure (SMILES),average flux [1],potency relative to selexipag [4],oral bioavailability [5] [%],effect of presence of food on AUC ([6]; presence of food) [%],absorption ([6]; oral) [%],metabolism of selexipag to ACT 333679 ([7]; carboxylases present in human plasma),metabolism of selexipag to ACT 333679 ([7]; human hepatic microsomes),difference in incidence of side effects between selexipag and placebo [8]
2,0.23,higher than that of selexipag,CC(C)N(CCCCOCC(=O)O)c1cnc(-c2ccccc2)c(-c2ccccc2)n1 [ACT 333679],2.9 micrograms per square centimeter per hour,at least 16 times,57,27,–,–,–,–
–,–,–,CC(C)N(CCCCOCC(=O)NS(C)(=O)=O)c1cnc(-c2ccccc2)c(-c2ccccc2)n1 [selexipag],1.2 micrograms per square centimeter per hour,–,–,–,~60,do not metabolize selexipag to ACT 333679,metabolized to ACT 333679 from hepatic microsomes,higher than 10%
